{
  "source": "patent US10696689B2",
  "about": "“Somatostatin modulators and uses thereof” (CRINETICS PHARMACEUTICALS, INC., priority 2018, dated 2020)",
  "key": {"[1]": {"system": "hSSTR2 vs. hSSTR4", "test": "Selectivity for inhibition of cAMP via hSSTR2 vs. hSSTR4", "type": "cell-based, human", "details": "Table C", "description": "(§1) General overview: All five SSTR subtypes are Gi coupled G-protein coupled receptors (GPCRs) that lead to decreases in intracellular cyclic AMP (cAMP) when activated by an agonist. Therefore, measurement of intracellular cAMP levels can be used to assess whether compounds of the invention are agonists of SSTR subtypes (John Kelly, Troy Stevens, W. Joseph Thompson, and Roland Seifert, Current Protocols in Pharmacology, 2005, 2.2.1-2.2). One example of an intracellular cAMP assay is described below.\n(§2) Four days prior to the assay, 5,000 Chinese hamster ovary cells (CHO-K1, ATCC # CCL-61) stably expressing the human somatostatin receptor subtype 2 are plated in each well of a 96-well tissue culture-treated plate in Ham's F12 growth media (ThermoFisher #10-080-CM) supplemented with 10% donor bovine serum (Gemini Bio-Products #100-506), 100 U/mL penicillin; 100 ug/mL streptomycin; 2 mM L-glutamine (Gemini Bio-Products #400-110) and 0.2 mg/mL hygromycin B (GoldBio #31282-04-9). The cells are cultured at 37° C., 5% CO2 and 95% humidity. On the day of the assay, the media is aspirated and the cells are treated with 50 μL of 1.6 μM NKH477 (Sigma # N3290) plus various dilutions of compounds of the invention in assay buffer [1× Hank's Balanced Salt Solution (ThermoFisher # SH3058802), 0.5 mM HEPES pH 7.4, 0.1% bovine serum albumin, 0.2 mM 3-Isobutyl-1-methylxanthine (IBMX, VWR #200002-790)]. The cells are incubated for 20 minutes at 37° C. (the final concentration of the compounds of the invention are typically 0-10,000 nM). The cells are treated with 50 μL of lysis buffer (HRTF cAMP kit, Cisbio). The lysate is transferred to 384-well plates and cAMP detection and visualization antibodies are added and incubated for 1-24 hours at room temperature. The time-resolved fluorescent signal is read with a Tecan M1000Pro multiplate reader. The intracellular cAMP concentrations are calculated by regression to a standard curve and are plotted vs. the concentration of the compounds of the invention and the EC50 of the compounds are calculated using standard methods. All data manipulations are in GraphPad Prism v6."}, "[2]": {"biological_target": "human SST2 receptor (SSTR2) (Homo sapiens (Human), UniProt P30874)", "sequence (P30874 whole entry)": "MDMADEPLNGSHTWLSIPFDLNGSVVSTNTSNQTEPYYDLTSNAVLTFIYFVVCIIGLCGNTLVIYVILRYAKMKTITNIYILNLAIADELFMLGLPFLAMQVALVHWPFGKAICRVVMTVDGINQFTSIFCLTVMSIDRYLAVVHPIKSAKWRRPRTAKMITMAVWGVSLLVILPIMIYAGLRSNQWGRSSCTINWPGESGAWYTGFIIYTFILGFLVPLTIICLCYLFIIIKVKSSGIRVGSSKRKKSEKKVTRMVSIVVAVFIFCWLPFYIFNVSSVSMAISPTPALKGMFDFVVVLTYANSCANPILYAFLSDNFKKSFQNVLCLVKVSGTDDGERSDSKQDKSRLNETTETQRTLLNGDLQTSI", "test": "cAMP assay: inhibition of cAMP via human SST2 receptor in CHO-K1 cells", "type": "cell-based", "details": "CHO-K1 cells stably expressing human SSTR2, NKH477 stimulated", "description": "as §1, §2"}, "[3]": {"test": "Liver microsomal stability assay", "type": "in vitro ADME", "details": "human liver microsomes 0.5 mg/mL, 1 μM compound, 37° C.", "method": "The in vitro stabilities of compounds of interest were determined for various species using pooled male and female human, pooled male Sprague-Dawley rat, pooled male Cynomolgus monkey, and pooled male Beagle dog liver microsomes at microsomal protein concentrations of 0.5 mg/mL. Incubations were carried out in a potassium phosphate buffer (50 mM). The NADPH-generating system was composed of NADP+ (1 mM), magnesium chloride (3 mM), EDTA (1 mM), glucose-6-phosphate (5 mM) and glucose-6-phosphate dehydrogenase (1 Unit/mL) for all experiments. Compounds of interest in DMSO were added to achieve a final incubation concentration of 1 μM (final DMSO content was 0.1% v/v and final acetonitrile content was 0.9%). The final incubation volume was 400 μL. Incubations were conducted at 37° C. for 0, 5, 10, 20, 40 and 60 minutes in a shaking water bath and terminated by removing 50 μL of incubation mixture and adding to 100 μL of ice cold acetonitrile containing internal standard. Following precipitation by centrifugation at 3500 rpm and 4° C. for 30 minutes, compounds of interest and internal standard were analyzed in the resultant supernatant using a multiple reaction monitoring (MRM) LC-MS/MS method. MS conditions were optimized for each analyte.\nThe following Table (Table D) illustrates human liver microsomal stability of exemplary compounds."}},
  "data": [
    {"molecule": "Nc1ncc(-c2cccc(F)c2)c(N2CC[C@@H]3NCCO[C@H]3C2)c1-c1nc2c(F)cc(F)cc2[nH]1", "note": "[Compound 3-3, 4-[(4αS,8αS)-octahydro-1H-pyrido[3,4-b][1,4]oxazin-6-yl]-3-(4,6-difluoro-1H-1,3-benzodiazol-2-yl)-5-(3-fluorophenyl)pyridin-2-amine]", "values": [
      {"measurement": "hSST4/hSST2 (ratio)", "setting": "[1]", "result": "c (c = between 2.5 and 15;)"},
      {"measurement": "EC50", "setting": "[2]", "result": "0.1 to 1", "unit": "nM"},
      {"measurement": "HLM t1/2", "setting": "[3]", "result": 3.85, "unit": "h"}
    ]},
    {"molecule": "COc1cc(C#N)cc2[nH]c(-c3c(N)ncc(-c4cccc(F)c4)c3N3CC[C@@H]4NCCO[C@H]4C3)nc12", "note": "[Compound 3-11, 2-{4-[(4αS, 8αS)-octahydro-1H-pyrido[3,4-b][1,4]oxazin-6-yl]-2-amino-5-(3-fluorophenyl)pyridin-3-yl}-4-methoxy-1H-1,3-benzodiazole-6-carbonitrile]", "values": [
      {"measurement": "hSST4/hSST2 (ratio)", "setting": "[1]", "result": "a (a = above 50,)"},
      {"measurement": "EC50", "setting": "[2]", "result": "0.1 to 1", "unit": "nM"},
      {"measurement": "HLM t1/2", "setting": "[3]", "result": ">11.6", "unit": "h"}
    ]},
    {"molecule": "COc1cc(C#N)cc2[nH]c(-c3c(N)ncc(-c4cc(F)cc(F)c4)c3N3CC[C@@H]4NCCO[C@H]4C3)nc12", "note": "[Compound 3-18, 2-{4-[(4αS,8αS)-octahydro-1H-pyrido[3,4-b][1,4]oxazin-6-yl]-2-amino-5-(3,5-difluorophenyl)pyridin-3-yl}-4-methoxy-1H-1,3-benzodiazole-6-carbonitrile]", "values": [
      {"measurement": "hSST4/hSST2 (ratio)", "setting": "[1]", "result": "b (b = bewteen 15 and 50;)"},
      {"measurement": "EC50", "setting": "[2]", "result": "0.1 to 1", "unit": "nM"},
      {"measurement": "HLM t1/2", "setting": "[3]", "result": 1.65, "unit": "h"}
    ]},
    {"molecule": "N#Cc1cc(F)c2nc(-c3c(N)ncc(-c4cc(F)cc(F)c4)c3N3CC[C@@H]4OCCN[C@H]4C3)[nH]c2c1", "note": "[Compound 3-19, 2-{4-[(4αS,8αS)-octahydro-1H-pyrido[3,4-b][1,4]oxazin-6-yl]-2-amino-5-(3,5-difluorophenyl)pyridin-3-yl}-4-fluoro-1H-1,3-benzodiazole-6-carbonitrile]", "values": [
      {"measurement": "hSST4/hSST2 (ratio)", "setting": "[1]", "result": "b (b = bewteen 15 and 50;)"},
      {"measurement": "EC50", "setting": "[2]", "result": "0.1 to 1", "unit": "nM"},
      {"measurement": "HLM t1/2", "setting": "[3]", "result": 5.78, "unit": "h"}
    ]}
  ]
}
